Laboratory results taken from patent US11147792B2, “Inhibitors of microbially induced amyloid” (Axial Therapeutics, Inc, priority 2017, dated 2021).
Where two headings read alike, the source gives them in different places.

Experiments:
[1] = target: T1, α-synuclein seeded by E. coli CsgA (Homo sapiens, UniProt P37840); experiment: In vitro Thioflavin T assay of CsgA-seeded α-synuclein aggregation; type: biochemical; conditions: compounds at 50 μM; 2 μM CsgA, 50 μM α-synuclein; ThT fluorescence at 40 hours; read-out: Inhibition of Aggregation CsgA-seeded αSyn
T1 construct: made in house; host or cells: E. coli NEB 3016 slyD::kan (CsgA, pET11d); E. coli (α-synuclein)
Description: In Vitro Thioflavin T Assay to Determine the Effects of Compounds on CsgA-Seeded α-Synuclein Aggregation.
To induce over-expression of CsgA, 0.5 mM IPTG was added to cultures with an optical density at 600 nm (OD600) of 0.8-1, and induced cells were cultured at 37° C. for 1 hour prior to harvest via centrifugation. […] Buffers with imidazole were freshly prepared prior to the protein purification. Purified CsgA was passed through a 30 kDa molecular weight cut-off filter and through a desalting column. All steps of the CsgA purification in the absence of guanidine hydrochloride were conducted in rapid succession with as little delay as possible. […] The ammonium sulfate pellet was washed with an equal volume of 100 mM ammonium acetate in ethanol, pelleted via centrifugation, washed twice with ethanol, dried overnight, resuspended in 10 mM Tris pH 7.4, and passed through a 50 kDa cut-off column. The assay was conducted in 96-well black microplates with a single glass 2 mm bead per well, 40 μM ThioflavinT, 1% DMSO, 2 μM CsgA, 50 μM α-synuclein, 100 mM sodium chloride, 9.3 mM potassium phosphate pH 7.3, and compounds at 50 μM. […] The effect of compounds on CsgA-seeded α-synuclein aggregation in the assay was determined with data from 40 hours, following the plateau of the fluorescent signal in the untreated (no compound) control wells containing CsgA and α-synuclein. Fluorescence values for each compound with CsgA and α-synuclein were first adjusted by subtracting the average fluorescence of the compound in the absence of CsgA and α-synuclein.

E. coli CsgA = target: T2, E. coli CsgA (Escherichia coli, UniProt P28307); experiment: In vitro ThioflavinT assay of CsgA aggregation; type: biochemical; conditions: CsgA at 20 μM, ThT fluorescence at 18 hours
T2 construct: made in house; host or cells: E. coli NEB 3016 slyD::kan, pET11d
T2 sequence (P28307 23-151): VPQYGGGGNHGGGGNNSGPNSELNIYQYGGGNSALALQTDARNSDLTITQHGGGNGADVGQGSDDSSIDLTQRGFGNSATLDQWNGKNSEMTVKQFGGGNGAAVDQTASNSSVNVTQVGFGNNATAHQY
Description: In Vitro ThioflavinT Assay to Determine Effects of Compounds on CsgA Aggregation.
To assess the effects of compounds on aggregation of E. coli CsgA, a cell-free assay was performed using purified CsgA and Thioflavin T. In the assay, histidine-tagged CsgA was over-expressed in E. coli NEB 3016 slyD::kan cells harboring a pET11d vector containing csgA with the sequence for 6 histidine residues added to the C-terminus and without the Sec signal (amino acid 1-22) sequence. To induce over-expression of CsgA, 0.5 mM isopropyl β-D-1-thiogalactopyranoside (“IPTG”) was added to cultures with an optical density at 600 nm (OD600) of 0.8-1, and induced cells were cultured at 37° C. for 1 hour prior to harvest via centrifugation. Cells were lysed under denaturing conditions with 8 M guanidine hydrochloride in 50 mM potassium phosphate buffer pH 7.3, and CsgA was purified via immobilized-metal affinity chromatography by batch purification with Nickel-NTA agarose and a combination of low pressure and gravity flow through a disposable polypropylene column, including washes under low pressure applied manually via application of a syringe plunger to the column with 50 mM potassium phosphate buffer pH 7.3 followed by 12.5 mM imidazole in 50 mM potassium phosphate buffer pH 7.3, and elution by gravity flow with 125 mM imidazole in 50 mM potassium phosphate buffer pH 7.3. Buffers with imidazole were freshly prepared prior to the protein purification. Purified CsgA was passed through a 30 kDa molecular weight cut-off filter and passed through a desalting column. All steps of the CsgA purification in the absence of guanidine hydrochloride were conducted in rapid succession with as little delay as possible. The assay was conducted in 96-well black microplates with 40 μM ThioflavinT, 1% DMSO, CsgA at 20 μM, and compounds at 20 μM. Plates were incubated at 25° C. in a Tecan Nano F200 plate reader with excitation at 438 nm using a 439 nm filter with a bandwidth of 8 nm, and emission at 495 nm with a 490 nm filter with a bandwidth of 10 nm. During the assay, plates were shaken initially for 5 seconds and subsequently for 3 seconds prior to fluorescent readings. Readings were performed every 20 minutes for up to 24 hours. The effect of compounds on CsgA aggregation in the assay was determined with data from 18 hours, following the plateau of the fluorescent signal in the untreated (no compound) control wells containing CsgA. Fluorescence values for each compound with CsgA were first adjusted by subtracting the average fluorescence of the compound in the absence of CsgA. These adjusted values were normalized by dividing them by the average fluorescence in the no-compound (i.e., untreated) control wells containing CsgA […], and the average normalized fluorescence with the compound was expressed as a percentage of the average fluorescence observed in untreated controls.

For `O=C(O[C@@H]1Cc2c(O)cc(O)cc2O[C@@H]1c1cc(O)c(O)c(O)c1)c1cc(O)c(O)c(O)c1` [EGCG, epigallocatechin gallate], the inhibition at 50 µM [1] was 77%, the inhibition at 20 µM (E. coli CsgA; read-out: Inhibition of Aggregation CsgA (compound activity range), compounds at 20 μM) was 30 to 60% and the inhibition at 20 µM (E. coli CsgA; read-out: Inhibition of Aggregation CsgA, compounds at 20 μM) was 56%.
